According to the supplement of paper PMC10307832:

Legend:
Experiment in all cases: relative viability (nuclei count vs DMSO), 5 days (fraction); higher = more cells survive
GW-2580 + Lapatinib = compound: COC1=CC=C(C=C1)COC2=C(C=C(C=C2)CC3=CN=C(N=C3N)N)OC [GW-2580] + CS(=O)(=O)CCNCc1ccc(-c2ccc3ncnc(Nc4ccc(OCc5cccc(F)c5)c(Cl)c4)c3c2)o1 [Lapatinib] (partner 2 µM)
Summary of the method: (§1)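 Lung cancer cell lines in 1536-well plates were dosed by pin tool the day after seeding, either with one drug alone or with a fixed anchor-drug dose plus five library-drug doses (not always all listed) in √10 steps. After 5 days, cells were fixed and their nuclei stained in one step (final 0.05% Triton X-100, 1% formaldehyde, 1 ug/ml Hoechst), then counted on 4× images. Relative viability is the nuclei count in treated wells divided by that in vehicle wells. Values are medians of duplicate plates.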

GW-2580 + Pictilisib = compound: COC1=CC=C(C=C1)COC2=C(C=C(C=C2)CC3=CN=C(N=C3N)N)OC [GW-2580] + CS(=O)(=O)N1CCN(Cc2cc3nc(-c4cccc5[nH]ncc45)nc(N4CCOCC4)c3s2)CC1 [Pictilisib] (partner 1 µM)
Summary of the method: as §1

Fedratinib + Luminespib = compound: Cc1cnc(Nc2ccc(OCCN3CCCC3)cc2)nc1Nc1cccc(S(=O)(=O)NC(C)(C)C)c1 [Fedratinib] + CCNC(=O)c1noc(-c2cc(C(C)C)c(O)cc2O)c1-c1ccc(CN2CCOCC2)cc1 [Luminespib] (partner 0.01 µM)
Summary of the method: as §1

Fedratinib + Lapatinib = compound: Cc1cnc(Nc2ccc(OCCN3CCCC3)cc2)nc1Nc1cccc(S(=O)(=O)NC(C)(C)C)c1 [Fedratinib] + CS(=O)(=O)CCNCc1ccc(-c2ccc3ncnc(Nc4ccc(OCc5cccc(F)c5)c(Cl)c4)c3c2)o1 [Lapatinib] (partner 2 µM)
Summary of the method: as §1

Fedratinib + Alpelisib = compound: Cc1cnc(Nc2ccc(OCCN3CCCC3)cc2)nc1Nc1cccc(S(=O)(=O)NC(C)(C)C)c1 [Fedratinib] + Cc1nc(NC(=O)N2CCC[C@H]2C(N)=O)sc1-c1ccnc(C(C)(C)C(F)(F)F)c1 [Alpelisib] (partner 2 µM)
Summary of the method: as §1

Fedratinib + Phenformin = compound: Cc1cnc(Nc2ccc(OCCN3CCCC3)cc2)nc1Nc1cccc(S(=O)(=O)NC(C)(C)C)c1 [Fedratinib] + N=C(N)NC(=N)NCCc1ccccc1 [Phenformin] (partner 250 µM)
Summary of the method: as §1

Cell Line	relative viability (GW-2580 + Lapatinib; first compound 0.08 µM)	relative viability (GW-2580 + Lapatinib; first compound 2.53 µM)	relative viability (GW-2580 + Lapatinib; first compound 8 µM)	relative viability (GW-2580 + Pictilisib; first compound 0.08 µM)	relative viability (GW-2580 + Pictilisib; first compound 2.53 µM)	relative viability (GW-2580 + Pictilisib; first compound 8 µM)	relative viability (Fedratinib + Luminespib; first compound 0.1 µM)	relative viability (Fedratinib + Luminespib; first compound 0.3162 µM)	relative viability (Fedratinib + Luminespib; first compound 1 µM)	relative viability (Fedratinib + Lapatinib; first compound 0.1 µM)	relative viability (Fedratinib + Lapatinib; first compound 0.3162 µM)	relative viability (Fedratinib + Lapatinib; first compound 1 µM)	relative viability (Fedratinib + Alpelisib; first compound 0.1 µM)	relative viability (Fedratinib + Alpelisib; first compound 0.3162 µM)	relative viability (Fedratinib + Alpelisib; first compound 1 µM)	relative viability (Fedratinib + Phenformin; first compound 0.1 µM)	relative viability (Fedratinib + Phenformin; first compound 0.3162 µM)	relative viability (Fedratinib + Phenformin; first compound 1 µM)	relative viability (GW-2580 + Lapatinib; first compound 0.8 µM)	relative viability (GW-2580 + Pictilisib; first compound 0.8 µM)
LCLC-97TM1	1.02	0.973	0.898	0.197	0.159	0.181	0.85	0.758	0.7	1.14	0.711	0.938	0.201	0.288	0.189	0.477	0.425	0.37		
PC-3 [JPC-3]	0.458	0.358	0.446	0.857	0.716	0.68	0.716	0.793	0.642	0.422	0.446	0.412	0.985	1.01	1.09	0.508	0.466	0.482	0.462	0.798
BEN	0.642	0.481	0.709	0.612	0.451	0.515	0.312	0.248	0.263	0.665	0.585	0.543	0.83	0.972	0.891	0.251	0.231	0.292	0.795	0.602
NCI-H1666	0.601	0.847	0.431	0.55	0.316	0.573	0.92	0.977	1.01	0.503	0.671	0.258	0.872	1.05	1.02	0.57	0.575	0.522	0.757	0.653
LC-2-ad	1.14	0.992	0.896	0.577	0.447	0.413	1.01	1.06	0.917	1.06	0.983	0.104	0.932	0.879	0.772	0.595	0.624	0.528	0.982	0.502
SK-LU-1	0.962	0.829	0.979	0.621	0.461	0.557	0.181	0.19	0.16	0.851	0.871	0.578		0.93	0.701	0.5	0.514	0.328	1.14	0.63
COR-L 105	0.429	0.336	0.351	0.36	0.353	0.375	0.753	0.743	0.78	0.297	0.379	0.336	1.04	1.06	0.793	0.398	0.429	0.433	0.393	0.404
NCI-H1975	0.925	0.885	0.834	0.294	0.29	0.29	0.235	0.266	0.178	1.02	0.922	0.163	0.613	0.692	0.467	0.416	0.407	0.37	1.09	0.325
